A word on the EC50: it is the concentration that produces a half-maximal response.

The results in this text go back to patent US8916702B2 (priority 2012, dated 2014).

The subject of the first assay is HCV pseudoparticles (genotype 1a HCV E1 and E2 envelope, H77C isolate). The assay is described as follows: microbe, parasite or virus in culture. The note with it: Hepatitis C virus, Huh-7, 48 h, HCV pseudoparticles (genotype 1a, H77C) in Huh7 cells; average of duplicate; luciferase 2 days after infection. It counts as cell-based.
Compound `CC(C)(CNC(=O)C(=O)Nc1ccnn1-c1ccccc1)CNC(=O)c1ccc(Nc2nc(NC3(c4ccc(Cl)cc4)CC3)nc(OCC(F)(F)F)n2)cc1` [Compound 3029] had an EC50 of 0.071 nM. The same measure, in the same setting: the figure for `CC(C)(CNC(=O)C(=O)Nc1ccc2cccnc2c1)CNC(=O)c1ccc(Nc2nc(NC3(c4ccc(Cl)cc4)CC3)nc(OCC(F)(F)F)n2)cc1` [Compound 3034] is 0.04 nM.

`CC(C)(CNC(=O)C(=O)Nc1cccc(C(=N)N)c1)CNC(=O)c1ccc(Nc2nc(NC3(c4ccc(Cl)cc4)CC3)nc(OCC(F)(F)F)n2)cc1` [Compound 3041]: the concentration for a half-maximal effect (EC50) is 0.068 nM.

The compound `Cc1ccc(NC(=O)C(=O)NCC(C)(C)CNC(=O)c2ccc(Nc3nc(NC4(c5ccc(Cl)cc5)CC4)nc(OCC(F)(F)F)n3)cc2)c(C)c1` [Compound 3055] showed an EC50 of 0.0095 nM. On the same count and under the same terms, the figure for `Cc1ccc(NC(=O)C(=O)NCC(C)(C)CNC(=O)c2ccc(Nc3nc(NC4(c5ccc(Cl)cc5)CC4)nc(OCC(F)(F)F)n3)cc2)c(F)c1` [Compound 3056] is 0.007 nM. On the same count and under the same terms, next, `CC(C)(CNC(=O)C(=O)NC1CC1)CNC(=O)c1ccc(Nc2nc(NC3(c4ccc(Cl)cc4)CC3)nc(OCC(F)(F)F)n2)cc1` [Compound 3066]: 0.032 nM; `CC(C)(CNC(=O)C(=O)NO)CNC(=O)c1ccc(Nc2nc(NC3(c4ccc(Cl)cc4)CC3)nc(OCC(F)(F)F)n2)cc1` [Compound 3074]: 0.054 nM.

Still in this assay, the particulars now being: Hepatitis C virus, Huh-7, read-out: Activity (EC50 class), HCV pseudoparticles (genotype 1a, H77C) in Huh7 cells; EC50 expressed as class A/B.
As for `CNC(=O)CCc1ccc(NC(=O)C(=O)NCC(C)(C)CNC(=O)c2ccc(Nc3nc(NC4(c5ccc(Cl)cc5)CC4)nc(OCC(F)(F)F)n3)cc2)cc1` [Compound 3025], the EC50 lay in the range of 0.01 to 10 nM.

Regarding `CC(C)(CNC(=O)C(=O)Nc1ccc2nccnc2c1)CNC(=O)c1ccc(Nc2nc(NC3(c4ccc(Cl)cc4)CC3)nc(OCC(F)(F)F)n2)cc1` [Compound 3026], the concentration for a half-maximal effect (EC50) is 0.01 to 10 nM. The same measure, in the same setting: the figure for `CC(C)(CNC(=O)C(=O)Nc1ncco1)CNC(=O)c1ccc(Nc2nc(NC3(c4ccc(Cl)cc4)CC3)nc(OCC(F)(F)F)n2)cc1` [Compound 3027] is 0.01 to 10 nM. In the case of `CC(C)(CNC(=O)C(=O)Nc1ccnn1-c1ccccc1)CNC(=O)c1ccc(Nc2nc(NC3(c4ccc(Cl)cc4)CC3)nc(OCC(F)(F)F)n2)cc1` [Compound 3029], the EC50 is 0.01 to 10 nM.

For the compound `CC(C)(CNC(=O)C(=O)Nc1cccc2ccccc12)CNC(=O)c1ccc(Nc2nc(NC3(c4ccc(Cl)cc4)CC3)nc(OCC(F)(F)F)n2)cc1` [Compound 3030], the 50% effective concentration (EC50) lay within 0.01 to 10 nM. Same read-out and setting: next, `CC(C)(CNC(=O)C(=O)NS(C)(=O)=O)CNC(=O)c1ccc(Nc2nc(NC3(c4ccc(Cl)cc4)CC3)nc(OCC(F)(F)F)n2)cc1` [Compound 3031]: 0.01 to 10 nM; `CC(C)(CNC(=O)C(=O)NS(=O)(=O)C1CC1)CNC(=O)c1ccc(Nc2nc(NC3(c4ccc(Cl)cc4)CC3)nc(OCC(F)(F)F)n2)cc1` [Compound 3032]: 0.01 to 10 nM; `CC(C)(CNC(=O)C(=O)Nc1cn[nH]c1)CNC(=O)c1ccc(Nc2nc(NC3(c4ccc(Cl)cc4)CC3)nc(OCC(F)(F)F)n2)cc1` [Compound 3033]: 0.01 to 10 nM. On to `CC(C)(CNC(=O)C(=O)Nc1ccc2cccnc2c1)CNC(=O)c1ccc(Nc2nc(NC3(c4ccc(Cl)cc4)CC3)nc(OCC(F)(F)F)n2)cc1` [Compound 3034], for which the half-maximal effective concentration (EC50) was in the range of 0.01 to 10 nM. The same measure, in the same setting: next, `CC(C)(CNC(=O)C(=O)NCc1ccccc1-c1ccccc1)CNC(=O)c1ccc(Nc2nc(NC3(c4ccc(Cl)cc4)CC3)nc(OCC(F)(F)F)n2)cc1` [Compound 3035]: 0.01 to 10 nM; `Cn1nccc1NC(=O)C(=O)NCC(C)(C)CNC(=O)c1ccc(Nc2nc(NC3(c4ccc(Cl)cc4)CC3)nc(OCC(F)(F)F)n2)cc1` [Compound 3036]: 0.01 to 10 nM. On to `CNC(=O)CCc1cccc(NC(=O)C(=O)NCC(C)(C)CNC(=O)c2ccc(Nc3nc(NC4(c5ccc(Cl)cc5)CC4)nc(OCC(F)(F)F)n3)cc2)c1` [Compound 3037], for which the EC50 was 0.01 to 10 nM.

Consider `CC(C)(CNC(=O)C(=O)Nc1ccc2ncccc2c1)CNC(=O)c1ccc(Nc2nc(NC3(c4ccc(Cl)cc4)CC3)nc(OCC(F)(F)F)n2)cc1` [Compound 3038], for which the EC50 was 0.01 to 10 nM. Still for that read-out and setting: the figure for `CC(C)(CNC(=O)C(=O)NCc1cccc(C(=N)N)c1)CNC(=O)c1ccc(Nc2nc(NC3(c4ccc(Cl)cc4)CC3)nc(OCC(F)(F)F)n2)cc1` [Compound 3039] is 0.01 to 10 nM; for `CC(C)(CNC(=O)C(=O)Nc1ccon1)CNC(=O)c1ccc(Nc2nc(NC3(c4ccc(Cl)cc4)CC3)nc(OCC(F)(F)F)n2)cc1` [Compound 3040] it is 0.01 to 10 nM. On the same count and under the same terms, next, `CC(C)(CNC(=O)C(=O)Nc1cccc(C(=N)N)c1)CNC(=O)c1ccc(Nc2nc(NC3(c4ccc(Cl)cc4)CC3)nc(OCC(F)(F)F)n2)cc1` [Compound 3041]: 0.01 to 10 nM; `Cc1cccc(CNC(=O)C(=O)NCC(C)(C)CNC(=O)c2ccc(Nc3nc(NC4(c5ccc(Cl)cc5)CC4)nc(OCC(F)(F)F)n3)cc2)c1` [Compound 3042]: 0.01 to 10 nM; `CC(C)(CNC(=O)C(=O)NCc1ccc(C(=N)N)cc1)CNC(=O)c1ccc(Nc2nc(NC3(c4ccc(Cl)cc4)CC3)nc(OCC(F)(F)F)n2)cc1` [Compound 3043]: 0.01 to 10 nM. For `Cc1ccc(NC(=O)C(=O)NCC(C)(C)CNC(=O)c2ccc(Nc3nc(NC4(c5ccc(Cl)cc5)CC4)nc(OCC(F)(F)F)n3)cc2)cc1F` [Compound 3044], the EC50 lay in the range of 0.01 to 10 nM.

Consider `COC(=O)c1cccc(-c2ccccc2NC(=O)C(=O)NCC(C)(C)CNC(=O)c2ccc(Nc3nc(NC4(c5ccc(Cl)cc5)CC4)nc(OCC(F)(F)F)n3)cc2)c1` [Compound 3045], for which the EC50 lay in the range of 0.01 to 10 nM. Same read-out and setting: the figure for `CC(C)(CNC(=O)C(=O)Nc1ccccc1-n1cnnn1)CNC(=O)c1ccc(Nc2nc(NC3(c4ccc(Cl)cc4)CC3)nc(OCC(F)(F)F)n2)cc1` [Compound 3046] is 0.01 to 10 nM.

As for `CCc1ccccc1NC(=O)C(=O)NCC(C)(C)CNC(=O)c1ccc(Nc2nc(NC3(c4ccc(Cl)cc4)CC3)nc(OCC(F)(F)F)n2)cc1` [Compound 3047], the EC50 was in the range of 0.01 to 10 nM. Same read-out and setting: the figure for `COc1cccc(-c2ccccc2NC(=O)C(=O)NCC(C)(C)CNC(=O)c2ccc(Nc3nc(NC4(c5ccc(Cl)cc5)CC4)nc(OCC(F)(F)F)n3)cc2)c1` [Compound 3049] is 0.01 to 10 nM; for `COc1ccccc1-c1ccccc1NC(=O)C(=O)NCC(C)(C)CNC(=O)c1ccc(Nc2nc(NC3(c4ccc(Cl)cc4)CC3)nc(OCC(F)(F)F)n2)cc1` [Compound 3050] it is 0.01 to 10 nM; for `O=C(NCC[C@@H](NC(=O)c1ccc(Nc2nc(NC3(c4ccc(Cl)cc4)CC3)nc(OCC(F)(F)F)n2)cc1)C(=O)O)C(=O)Nc1cc(F)c(F)c(F)c1F` [Compound 3051] it is 0.01 to 10 nM.

Turning to `CC(C)(CNC(=O)C(=O)Nc1ccccc1-c1cc2ccccc2[nH]1)CNC(=O)c1ccc(Nc2nc(NC3(c4ccc(Cl)cc4)CC3)nc(OCC(F)(F)F)n2)cc1` [Compound 3052], the 50% effective concentration (EC50) is 0.01 to 10 nM.

Consider `CC(C)(CNC(=O)C(=O)Nc1ccc(-n2cncn2)cc1)CNC(=O)c1ccc(Nc2nc(NC3(c4ccc(Cl)cc4)CC3)nc(OCC(F)(F)F)n2)cc1` [Compound 3053], for which the concentration for a half-maximal effect (EC50) was in the range of 0.01 to 10 nM. The same measure, in the same setting: the figure for `CC(C)(CNC(=O)C(=O)Nc1ccc(C[Si](C)(C)C)cc1)CNC(=O)c1ccc(Nc2nc(NC3(c4ccc(Cl)cc4)CC3)nc(OCC(F)(F)F)n2)cc1` [Compound 3054] is 0.01 to 10 nM. With `Cc1ccc(NC(=O)C(=O)NCC(C)(C)CNC(=O)c2ccc(Nc3nc(NC4(c5ccc(Cl)cc5)CC4)nc(OCC(F)(F)F)n3)cc2)c(C)c1` [Compound 3055], the EC50 lay within 0.01 to 10 nM.

`Cc1ccc(NC(=O)C(=O)NCC(C)(C)CNC(=O)c2ccc(Nc3nc(NC4(c5ccc(Cl)cc5)CC4)nc(OCC(F)(F)F)n3)cc2)c(F)c1` [Compound 3056]: the EC50 was in the range of 0.01 to 10 nM. On the same count and under the same terms, the figure for `Cc1cc(Cl)ccc1NC(=O)C(=O)NCC(C)(C)CNC(=O)c1ccc(Nc2nc(NC3(c4ccc(Cl)cc4)CC3)nc(OCC(F)(F)F)n2)cc1` [Compound 3057] is 0.01 to 10 nM; for `CC(C)(CNC(=O)C(=O)Nc1ccc(F)c(Cl)c1)CNC(=O)c1ccc(Nc2nc(NC3(c4ccc(Cl)cc4)CC3)nc(OCC(F)(F)F)n2)cc1` [Compound 3059] it is 0.01 to 10 nM; for `Cc1cc(NC(=O)C(=O)NCC(C)(C)CNC(=O)c2ccc(Nc3nc(NC4(c5ccc(Cl)cc5)CC4)nc(OCC(F)(F)F)n3)cc2)ccc1F` [Compound 3060] it is 0.01 to 10 nM. Same read-out and setting: the figure for `Cc1cc(F)ccc1NC(=O)C(=O)NCC(C)(C)CNC(=O)c1ccc(Nc2nc(NC3(c4ccc(Cl)cc4)CC3)nc(OCC(F)(F)F)n2)cc1` [Compound 3061] is 0.01 to 10 nM; for `CCOc1ccc(NC(=O)C(=O)NCC(C)(C)CNC(=O)c2ccc(Nc3nc(NC4(c5ccc(Cl)cc5)CC4)nc(OCC(F)(F)F)n3)cc2)cc1` [Compound 3062] it is 0.01 to 10 nM; for `CC(C)(CNC(=O)C(=O)Nc1ccccc1C(=O)N1CCCCC1)CNC(=O)c1ccc(Nc2nc(NC3(c4ccc(Cl)cc4)CC3)nc(OCC(F)(F)F)n2)cc1` [Compound 3063] it is 0.01 to 10 nM. In the case of `CC(C)(CNC(=O)C(=O)NOc1ccccc1)CNC(=O)c1ccc(Nc2nc(NC3(c4ccc(Cl)cc4)CC3)nc(OCC(F)(F)F)n2)cc1` [Compound 3064], the EC50 lay in the range of 0.01 to 10 nM. Still for that read-out and setting: next, `COc1ccc(-c2ccccc2NC(=O)C(=O)NCC(C)(C)CNC(=O)c2ccc(Nc3nc(NC4(c5ccc(Cl)cc5)CC4)nc(OCC(F)(F)F)n3)cc2)cc1` [Compound 3065]: 0.01 to 10 nM; `CC(C)(CNC(=O)C(=O)NC1CC1)CNC(=O)c1ccc(Nc2nc(NC3(c4ccc(Cl)cc4)CC3)nc(OCC(F)(F)F)n2)cc1` [Compound 3066]: 0.01 to 10 nM; `COc1ccc(NC(=O)C(=O)NCC(C)(C)CNC(=O)c2ccc(Nc3nc(NC4(c5ccc(Cl)cc5)CC4)nc(OCC(F)(F)F)n3)cc2)c(OC)c1` [Compound 3067]: 0.01 to 10 nM. The same measure, in the same setting: the figure for `COc1ccc(NC(=O)C(=O)NCC(C)(C)CNC(=O)c2ccc(Nc3nc(NC4(c5ccc(Cl)cc5)CC4)nc(OCC(F)(F)F)n3)cc2)c(C)c1` [Compound 3068] is 0.01 to 10 nM; for `COc1cc(NC(=O)C(=O)NCC(C)(C)CNC(=O)c2ccc(Nc3nc(NC4(c5ccc(Cl)cc5)CC4)nc(OCC(F)(F)F)n3)cc2)ccc1F` [Compound 3069] it is 0.01 to 10 nM. Take `COc1cc(C)ccc1NC(=O)C(=O)NCC(C)(C)CNC(=O)c1ccc(Nc2nc(NC3(c4ccc(Cl)cc4)CC3)nc(OCC(F)(F)F)n2)cc1` [Compound 3070]: the EC50 was in the range of 0.01 to 10 nM.

Take `CC(C)(CNC(=O)C(=O)Nc1ccc(Cl)c(F)c1)CNC(=O)c1ccc(Nc2nc(NC3(c4ccc(Cl)cc4)CC3)nc(OCC(F)(F)F)n2)cc1` [Compound 3071]: the EC50 lay within 0.01 to 10 nM. Still for that read-out and setting: next, `COc1ccc(NC(=O)C(=O)NCC(C)(C)CNC(=O)c2ccc(Nc3nc(NC4(c5ccc(Cl)cc5)CC4)nc(OCC(F)(F)F)n3)cc2)cc1F` [Compound 3072]: 0.01 to 10 nM; `Cc1ccc(NC(=O)C(=O)NCC(C)(C)CNC(=O)c2ccc(Nc3nc(NC4(c5ccc(Cl)cc5)CC4)nc(OCC(F)(F)F)n3)cc2)c(C)n1` [Compound 3073]: 0.01 to 10 nM. Regarding `CC(C)(CNC(=O)C(=O)NO)CNC(=O)c1ccc(Nc2nc(NC3(c4ccc(Cl)cc4)CC3)nc(OCC(F)(F)F)n2)cc1` [Compound 3074], the 50% effective concentration (EC50) fell in the range of 0.01 to 10 nM. `COc1cc(F)ccc1NC(=O)C(=O)NCC(C)(C)CNC(=O)c1ccc(Nc2nc(NC3(c4ccc(Cl)cc4)CC3)nc(OCC(F)(F)F)n2)cc1` [Compound 3075]: the EC50 fell in the range of 0.01 to 10 nM.
